# Tests used:
# Assay type in all cases: biochemical
# [1] = target: T1, tissue plasminogen activator (t-PA) (Homo sapiens, UniProt P00750); experiment: Serine protease inhibition (Kass), t-PA
# T1 construct: purchased American Diagnostica, Greenwich, Conn
# Procedure: (§1) By substantially following the procedures described above for human thrombin, and using other human blood coagulation system serine proteases and using fibrinolytic system serine proteases, with the appropriate chromogenic substrates, identified below, the selectivity of the compounds of the present invention with respect to the coagulation factor serine proteases and to the fibronolytic serine proteases are evaluated as well as their substantial lack of interference with human plasma clot fibrinolysis.
# (§2) Human plasmin is purchased from Boehringer Mannheim, Indianapolis, Ind.; nt-PA is purchased as single chain activity reference from American Diagnostica, Greenwich, Conn.; modified-t-PA6 (mt-PA6) is prepared at Eli Lilly and Company by procedure known in the art (See, Burck, et al., J. Biol. Chem., 265, […] (1990). Plasmin chromogenic substrate H-D-Val-Leu-Lys-p-nitroanilide and tissue plasminogen activator (t-PA) substrate H-D-Ile-Pro-Arg-p-nitroanilide are purchased from Kabi Vitrum, Stockholm, Sweden.
# [2] = target: T2, Bovine trypsin (Bos taurus, UniProt P00760); experiment: Serine protease inhibition (Kass), trypsin
# T2 construct: Bovine trypsin is purchased from Worthington Biochemicals; purchased Worthington Biochemicals, Freehold, N.J
# T2 sequence (P00760 24-246): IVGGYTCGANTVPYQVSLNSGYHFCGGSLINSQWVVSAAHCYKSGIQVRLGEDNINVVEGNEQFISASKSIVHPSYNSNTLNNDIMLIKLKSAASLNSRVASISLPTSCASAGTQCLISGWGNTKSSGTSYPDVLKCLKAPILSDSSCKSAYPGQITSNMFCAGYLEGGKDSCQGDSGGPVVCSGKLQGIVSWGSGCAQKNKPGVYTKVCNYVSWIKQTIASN
# Procedure: as §1
# (§3) Human factors X, Xa, IXa, XIa, and XIIa are purchased from Enzyme Research Laboratories, South Bend, Ind.; human urokinase from Leo Pharmaceuticals, Denmark; and recombinant activated Protein C (aPC) is prepared at Eli Lilly and Co. substantially according to U.S. Pat. No. 4,981,952 incorporated by reference herein in its entirety. Chromogenic substrates: N-Benzoyl-Ile-Glu-Gly-Arg-p-nitroanilide (for factor Xa); N-Cbz-D-Arg-Gly-Arg-p-nitroanilide (for factor IXa assay as the factor Xa substrate); Pyroglutamyl-Pro-Arg-p-nitroanilide (for Factor XIa and for aPC); H-D-Pro-Phe-Arg-p-nitroanilide (for factor XIIa); and Pyroglutamyl-Gly-Arg-p-nitroanilide (for urokinase); are purchased from KabiVitrum, Stockholm, Sweden, or from Midwest Biotech, Fishers, Ind. Bovine trypsin is purchased from Worthington Biochemicals, Freehold, N.J., and human plasma kallikrein from Kabi Vitrum, Stockholm, Sweden. Chromogenic substrate H-D-Pro-Phe-Arg-p-nitroanilide for plasma kallikrein is purchased from Kabi Vitrum, Stockholm, Sweden. N-Benzoyl-Phe-Val-Arg-p-nitroanilide, the substrate for human thrombin and for trypsin, is synthesized according to procedures described above for the compounds of the present invention, using known methods of peptide coupling from commercially available reactants, or purchaed from Midwest Biotech, Fishers, Ind.
# [3] = tested on: human plasma; experiment: Human plasma anticoagulation, activated partial thromboplastin time (APTT)
# Procedure: (§4) Fibrinogen is prepared from in-date ACD human blood as the fraction I-2 according to previous procedures and specifications. Smith, Biochem. […] Coagulation reagents ACTIN, Thromboplastin, and Human plasma are from Baxter Healthcare Corp., Dade Division, Miami, Fla. Bovine thrombin from Parke-Davis (Detroit, Mich.) is used for coagulation assays in plasma. Coagulation assay procedures are as previously described. […] A CoAScreener coagulation instrument (American LABor, Inc.) is used for all coagulation assay measurements. […] The compounds of formula I are added to human or animal plasma over a wide range of concentrations to determine prolongation effects on the APTT, PT, and TT assays. Linear extrapolations are performed to estimate the concentrations required to double the clotting time for each assay.
# [4] = target: T3, factor Xa (Homo sapiens, UniProt P00742); experiment: Serine protease inhibition (Kass), factor Xa
# T3 construct: Human factors X, Xa, IXa, XIa, and XIIa are purchased from Enzyme Research Laboratories; purchased Enzyme Research Laboratories, South Bend, Ind
# Procedure: as §1, §3
# [5] = tested on: human plasma; experiment: Human plasma anticoagulation, prothrombin time (PT)
# Procedure: as §4
# [6] = target: human thrombin (Homo sapiens, UniProt P00734); experiment: Thrombin amidase inhibition (Kass), chromogenic substrate
# Procedure: The assay is carried out by mixing 50 μl buffer (0.03M Tris, 0.15M NaCl, pH 7.4) with 25 μl of human thrombin solution (purified human thrombin, Enzyme Research Laboratories, South Bend, Ind., at 8 NIH units/ml) and 25 μl of test compound in a solvent (50% aqueous methanol (v:v)). Then 150 μl of an aqueous solution of the chromogenic substate (at 0.25 mg/ml) are added and the rates of hydrolysis of the substrate are measured by monitoring the reactions at 405 nm for the release of p-nitroaniline. Standard curves are constructed by plotting free thrombin concentration against hydrolysis rate. […] The amount of free inhibitor in each assay is calculated by subtracting the number of moles of bound thrombin from the number of moles of added inhibitor (test compound).
# The Kass value is the hypothetical equilibrium constant for the reaction between thrombin and the test compound (I) . [formula]
# Kass is calculated for a range of concentrations of test compounds and the mean value reported in units of liter per mole.
# [7] = target: T4, Human plasmin (Homo sapiens, UniProt P00747); experiment: Serine protease inhibition (Kass), plasmin
# T4 construct: Human plasmin is purchased from Boehringer Mannheim; purchased Boehringer Mannheim, Indianapolis, Ind
# Procedure: as §1, §2
# [8] = tested on: human plasma; experiment: Human plasma anticoagulation, thrombin time (TT)
# Procedure: as §4
# T3 sequence (P00742 235-488 limits assumed): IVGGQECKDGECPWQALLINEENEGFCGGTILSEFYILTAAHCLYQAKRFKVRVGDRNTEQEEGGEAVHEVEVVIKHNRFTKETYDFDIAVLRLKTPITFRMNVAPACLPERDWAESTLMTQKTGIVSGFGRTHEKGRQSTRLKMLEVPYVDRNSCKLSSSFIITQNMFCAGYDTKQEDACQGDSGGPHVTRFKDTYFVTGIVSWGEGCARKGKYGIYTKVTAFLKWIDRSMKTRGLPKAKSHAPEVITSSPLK
# T3 sequence (P00742 41-179 partner limits assumed): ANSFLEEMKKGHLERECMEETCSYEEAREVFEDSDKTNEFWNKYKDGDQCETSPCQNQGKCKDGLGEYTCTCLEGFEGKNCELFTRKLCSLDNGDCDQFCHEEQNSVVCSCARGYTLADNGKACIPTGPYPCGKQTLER
# T1 sequence (P00750 36-562): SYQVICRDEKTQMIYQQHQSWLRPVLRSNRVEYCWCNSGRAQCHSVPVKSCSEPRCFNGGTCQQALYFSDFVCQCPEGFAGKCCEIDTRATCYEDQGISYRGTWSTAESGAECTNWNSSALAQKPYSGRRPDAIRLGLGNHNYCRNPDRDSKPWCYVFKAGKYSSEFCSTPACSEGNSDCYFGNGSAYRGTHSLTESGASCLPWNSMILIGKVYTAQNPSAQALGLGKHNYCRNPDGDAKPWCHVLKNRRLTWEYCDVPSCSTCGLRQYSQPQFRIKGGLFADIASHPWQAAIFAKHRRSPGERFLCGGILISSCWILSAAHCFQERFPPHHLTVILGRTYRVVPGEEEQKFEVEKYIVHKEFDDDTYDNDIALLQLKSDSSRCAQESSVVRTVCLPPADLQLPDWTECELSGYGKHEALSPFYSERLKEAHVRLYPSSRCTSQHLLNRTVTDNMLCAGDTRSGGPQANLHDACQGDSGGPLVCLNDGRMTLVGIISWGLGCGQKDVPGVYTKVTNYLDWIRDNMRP
# T4 sequence (P00747 581-810 limits assumed): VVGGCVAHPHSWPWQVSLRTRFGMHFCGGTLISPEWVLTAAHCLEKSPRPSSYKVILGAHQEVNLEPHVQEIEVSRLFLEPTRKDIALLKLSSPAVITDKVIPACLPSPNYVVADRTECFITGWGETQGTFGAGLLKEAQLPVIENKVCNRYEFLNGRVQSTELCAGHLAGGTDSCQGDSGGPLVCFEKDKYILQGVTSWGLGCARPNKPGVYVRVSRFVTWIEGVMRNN
# T4 sequence (P00747 97-580 partner limits assumed): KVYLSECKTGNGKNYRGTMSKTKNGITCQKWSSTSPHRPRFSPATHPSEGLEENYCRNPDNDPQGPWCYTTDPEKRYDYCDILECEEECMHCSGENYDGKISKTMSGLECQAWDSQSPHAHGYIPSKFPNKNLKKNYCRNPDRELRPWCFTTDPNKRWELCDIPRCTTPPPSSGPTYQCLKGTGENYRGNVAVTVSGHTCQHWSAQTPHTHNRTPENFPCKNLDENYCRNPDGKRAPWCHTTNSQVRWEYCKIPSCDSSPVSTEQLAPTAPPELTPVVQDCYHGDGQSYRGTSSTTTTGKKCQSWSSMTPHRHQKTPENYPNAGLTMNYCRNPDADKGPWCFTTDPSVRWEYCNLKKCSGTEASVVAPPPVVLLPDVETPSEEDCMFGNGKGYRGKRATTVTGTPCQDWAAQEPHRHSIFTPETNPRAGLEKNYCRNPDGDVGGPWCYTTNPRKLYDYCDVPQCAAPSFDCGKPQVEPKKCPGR
Compound,Kass t-PA [1] [L/mol × 10^6],Kass Trypsin [2] [L/mol × 10^6],2 × Clotting time APTT [3],Kass Xa [4] [L/mol × 10^6],2 × Clotting time PT [5],Kass Human Thrombin [6] [L/mol × 10^6],Kass Plasmin [7] [L/mol × 10^6],2 × Clotting time TT [8]
"Cl.Cl.Cn1c(C(=O)N[C@](C)(Cc2ccccc2)C(=O)N2CCC[C@H]2C(=O)N[C@H](C=O)CCCNC(=N)N)cc2ccccc21 [Example 30, N-(1-methylindolyl-2-carbonyl)-D-phenylalanyl(α-methyl)-L-prolinyl-L -arginine aldehyde dihydrochloride]",0.0022,1.3,"2,800 ng/mL",0.013,"4,200 ng/mL",25,0.0083,220 ng/mL
"CCS(=O)(=O)NC1(C(=O)N2CCC[C@H]2C(=O)N[C@H](C=O)CCCNC(=N)N)CCCCC1.Cl [Example 31, 1-(ethylsulfonylamino)cyclohexoyl-L-prolinyl-L-arginine aldehyde hydrochloride]",0.00034,0.42,"12,000 ng/mL",0.036,"11,000 ng/mL",3.2,0.010,300 ng/mL
"Cl.Cn1c(C(=O)NC2(C(=O)N3CCC[C@H]3C(=O)N[C@H](C=O)CCCNC(=N)N)CCCCC2)cc2ccccc21 [Example 32, 1-(1-methylindolyl-2-carbonylamino)cyclohexoyl-L-prolinyl-L-arginine aldehyde hydrochloride]",0.0011,0.45,"11,000 ng/mL",0.024,"9,200 ng/mL",5.7,0.0071,"1,000 ng/mL"
"CCS(=O)(=O)N[C@@H](Cc1ccccc1)C(=O)N1CCC[C@@]1(C)C(=O)N[C@H](C=O)CCCNC(=N)N.Cl [Example 33, N-ethylsulfonylphenylalanyl(αmethyl)-L-prolinyl-L-arginine aldehyde hydrochloride]",0.007,1.7,"5,400 ng/mL",0.027,"7,300 ng/mL",0.6,0.056,300 ng/mL
"Cl.Cn1c(C(=O)NC(C)(Cc2ccccc2)C(=O)N2CCC[C@H]2C(=O)N[C@H](C=O)CCCNC(=N)N)cc2ccccc21 (stereo partly drawn) [Example 34, N-(1-methylindolyl-2carbonyl)phenylalanyl(αmethyl)-L-prolinyl-L-argi nine aldehyde hydrochloride]",0.009,0.18,"21,000 ng/mL",0.002,"37,000 ng/mL",2.8,0.001,"1,800 ng/mL"
"CCOC(=O)N[C@](CC)(Cc1ccccc1)C(=O)N1CCC[C@H]1C(=O)N[C@H](C=O)CCCNC(=N)N.Cl [Example 35, N-ethoxycarbonyl-D-phenylalanyl(αethyl)-L-prolinyl-L-arginine aldehyde hydrochloride]",0.002,4.9,"3,200 ng/mL",0.036,"3,300 ng/mL",57,0.12,93 ng/mL
"CCOC(=O)NC(CC)(Cc1ccccc1)C(=O)N1CCC[C@H]1C(=O)N[C@H](C=O)CCCNC(=N)N.Cl (stereo partly drawn) [Example 36, N-ethoxycarbonylphenylalanyl(αethyl)-L-prolinyl-L-arginine aldehyde hydrochloride]",0.001,4.7,"5,000 ng/mL",0.078,"7,100 ng/mL",6.5,0.058,310 ng/mL
CCC[C@](Cc1ccccc1)(NC(=O)OCC)C(=O)N1CCC[C@H]1C(=O)N[C@H](C=O)CCCNC(=N)N.Cl [Example 37],< 0.001,4.9,"4,100 ng/mL",0.030,"2,800 ng/mL",47,0.12,71 ng/mL
"CCCC(Cc1ccccc1)(NC(=O)OCC)C(=O)N1CCC[C@H]1C(=O)N[C@H](C=O)CCCNC(=N)N.Cl (stereo partly drawn) [Example 38, N-ethoxycarbonylphenylalanyl(αn-propyl)-L-prolinyl-L-arginine aldehyde hydrochloride]",< 0.001,7.3,"2,700 ng/mL",0.077,"2,200 ng/mL",38,0.074,98 ng/mL
"CCCC[C@](Cc1ccccc1)(NC(=O)OCC)C(=O)N1CCC[C@H]1C(=O)N[C@H](C=O)CCCNC(=N)N.Cl [Example 39, N-ethoxycarbonyl-D-phenylalanyl(αn-butyl)-L-prolinyl-L-arginine aldehyde hydrochloride]",< 0.001,21,"3,400 ng/mL",0.095,"3,000 ng/mL",66,0.066,160 ng/mL
"CCCCC(Cc1ccccc1)(NC(=O)OCC)C(=O)N1CCC[C@H]1C(=O)N[C@H](C=O)CCCNC(=N)N (stereo partly drawn) [Example 40, N-ethoxycarbonylphenylalanyl(αn-butyl)-L-prolinyl-L-arginine aldehyde]",0.001,15,"3,100 ng/mL",0.088,"2,400 ng/mL",47,0.13,91 ng/mL
